In paper PMC10574601, “Benzophenanthridine Alkaloid Chelerythrine Elicits Necroptosis of Gastric Cancer Cells via Selective Conjugation at the Redox Hyperreactive C-Terminal Sec^498 Residue of Cytosolic Selenoprotein Thioredoxin Reductase” (Molecules, 2023):

Key:
[1] = molecular target: T1, thioredoxin reductase 1 (TXNRD1) (Rattus norvegicus, UniProt O89049); experiment: DTNB reduction assay after […] h incubation; desalting shows irreversibility; assay type: biochemical
T1 construct: recombinant rat TXNRD1, wild-type
T1 sequence (O89049 1-499): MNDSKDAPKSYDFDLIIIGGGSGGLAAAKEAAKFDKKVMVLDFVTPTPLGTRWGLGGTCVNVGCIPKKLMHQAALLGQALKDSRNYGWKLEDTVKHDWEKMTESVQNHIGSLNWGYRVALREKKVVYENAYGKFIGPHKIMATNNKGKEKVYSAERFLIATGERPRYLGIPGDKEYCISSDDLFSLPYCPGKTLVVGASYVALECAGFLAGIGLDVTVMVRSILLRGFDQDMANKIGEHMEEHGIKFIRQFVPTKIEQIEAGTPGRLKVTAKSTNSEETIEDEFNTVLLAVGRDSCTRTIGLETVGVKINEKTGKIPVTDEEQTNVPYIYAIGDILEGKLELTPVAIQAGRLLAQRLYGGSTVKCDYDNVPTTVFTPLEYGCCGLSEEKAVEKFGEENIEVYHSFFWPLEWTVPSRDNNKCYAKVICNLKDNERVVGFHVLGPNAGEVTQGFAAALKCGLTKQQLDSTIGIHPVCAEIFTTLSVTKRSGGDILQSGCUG

[2] = molecular target: T1, thioredoxin reductase 1 (TXNRD1); experiment: NADPH oxidation at […] nm with […] TXNRD1; assay type: biochemical

| Compound | IC50 [1] | NADPH oxidation at 340 nm with 30 nM TXNRD1 [2] |
| --- | --- | --- |
| COc1ccc2c(c[n+](C)c3c4cc5c(cc4ccc23)OCO5)c1OC [Che, chelerythrine] | 65.9 µM | – |
| C[n+]1cc2c3c(ccc2c2ccc4cc5c(cc4c21)OCO5)OCO3 [San, sanguinarine] | 46.7 µM | – |
| O=C1C=CC(=O)c2c(O)cccc21 [juglone, 5-Hydroxy-1,4-naphthoquinone] | – | juglone, a substrate of TXNRD1, exhibited strong NADPH oxidation |
